≈ marks a conversion by molar mass, not a printed value.
Test system: Fusarium oxysporum
Assay: Antifungal activity, agar well diffusion method
Type: cell-based
Conditions: Fusarium oxysporum; 0.0039 mg/mL; zones st (static growth); read-out: Diameter of inhibition zone
Source text: (§1) The agar well diffusion method is widely used to evaluate the antimicrobial activity of different substances (S. Magaldi, S. Mata-Essayag, C. Hartung de Capriles, et al. Well diffusion for antifungal susceptibility testing, Int. J. Infect. Dis. 8, 2004 , 39–45; C. Valgas, S. M. De Souza, E. F. A. Smânia, et al. Screening methods to determine antibacterial activity of natural products. Braz. J. Microbiol. 38 , 2007 , 369–380). Similarly to the procedure used in a disk-diffusion method, the agar plate surface is inoculated by spreading a volume of the microbial inoculum over the entire agar surface. Then, a hole with a diameter of 6 to 8 mm is punched aseptically with a sterile cork borer or a tip, and a volume […] of the antimicrobial agent or extract solution at desired concentration is introduced into the well. Then, agar plates are incubated under suitable conditions depending upon the test microorganism. The antimicrobial agent diffuses in the agar medium and inhibits the growth of the microbial strain tested (M. Balouiri, M. Sadiki, S. K. Ibnsouda. Methods for in vitro evaluating […]
(§2) Agar well diffusion method is a qualitative method used to measure the ability of compounds to inhibit microbial growth. This test is a quick and easy way to measure and compare levels of inhibitory […]
(§3) Antifungal activity of the synthetic compounds using agar well diffusion The compunds were tested towards plant pathogens Fusarium oxysporum Schltdl. and F. verticillioides (Sacc.) Nirenberg isolated from crops. Antifungal activity of the synthetic compounds was evaluated with using of an agar well diffusion method based on a disk diffusion assay for testing filamentous fungi (CLSI M51-A) [CLSI. Method for Antifungal Disk Diffusion Susceptibility Testing of Nondermatophyte Filamentous Fungi; Approved Guideline.CLSI document M51-A. Wayne, PA:
(§4) Clinical and Laboratory Standards Institute; 2010. This method is standardized for Altenaria , Aspergillus, Bipolaris , Fusarium , order Mucorales etc.
(§5) Preparation of synthetic compounds for mycological assay
(§6) Solutions of fungicides and its analogs were diluted in dimethyl sulfoxide (DMSO) to produce the […]
(§7) Antifungal well diffusion method
(§8) The fungal strains were cultured on potato dextrose agar slants (PDA, Eur. Pharm.) and incubated at 25 °C for 5 days. Sterile distilled water was used to cover and resuspend the colonies. Suspension of […]
(§9) conidia was adjusted to inoculums 5×10^6 conidia/mL. The suspension was further diluted in warm PDA 1:10 to obtain final working inoculums 5×10^5 conidia/mL.
(§10) Polypropylene cylinders (d, 5 mm) were placed on the surface and wells punched in the medium were used as reservoir of the test substances in different concentrations. 40 µl of solutions containing 0.0039-1.0 mg/mL of a test compound was added into the wells.
(§11) Each compound was tested in triplicate at different concentrations. Growth control was a well with 40 µl of DMSO, which was used for test components dilution.
(§12) Plates incubated at 25 °C for 72 h. The test compounds at known concentration into contact with an inoculated medium then exerts a growth-inhibiting effect then a clear zone (the zone of inhibition) appears around the test product. Diameter of a clear zone around the well is measured at the end of the incubation period in millimeters. If the fungal strain is susceptible to the antifungal agent, then a zone of inhibition appears on the agar plate. If it is resistant to the test compound, then no zone is evident.
(§13) The size of the zone of inhibition is usually related to the level of antifungal activity present in the […]
(§14) The growth rate of Fusarium oxysporum and F. verticillioides for each well was determined visually and compared with the growth of control.
(§15) As shown in the table the antifungal activity of the 6 compounds, - Fluxapyroxad, compound 28, compound 29, Boscalid, compound 30, compound 31, - were tested against plant pathogenic fungal […]
(§16) toward Fusarium oxysporum (Table S5, Figure S16). Inhibition zones of all compounds characterized […]
For `Cn1cc(C(=O)N[C@@H]2[C@@H]3CC[C@@]2(c2cc(F)c(F)c(F)c2)C3)c(C(F)F)n1` (relative stereo) [Compound 28], the zone of inhibition at 3.9 µg/mL was 20 mm.

Same assay, conditions: Fusarium oxysporum; 0.0078 mg/mL; zones st (static growth); read-out: Diameter of inhibition zone
Molecule `Cn1cc(C(=O)N[C@@H]2[C@@H]3CC[C@@]2(c2cc(F)c(F)c(F)c2)C3)c(C(F)F)n1` (relative stereo) [Compound 28] has a zone of inhibition at […] of 25 mm.

Same assay, conditions: Fusarium oxysporum; 0.0156 mg/mL; zones st (static growth); read-out: Diameter of inhibition zone
Molecule `Cn1cc(C(=O)N[C@@H]2[C@@H]3CC[C@@]2(c2cc(F)c(F)c(F)c2)C3)c(C(F)F)n1` (relative stereo) [Compound 28] has a zone of inhibition at 15.6 µg/mL of 26 ± 1 mm.

Same assay, conditions: Fusarium oxysporum; 0.03125 mg/mL; zones st (static growth); read-out: Diameter of inhibition zone
Work on `Cn1cc(C(=O)N[C@@H]2[C@@H]3CC[C@@]2(c2cc(F)c(F)c(F)c2)C3)c(C(F)F)n1` (relative stereo) [Compound 28] yielded a zone of inhibition at 31.25 µg/mL of 28 ± 1 mm.

Same assay, conditions: Fusarium oxysporum; 0.0625 mg/mL; zones st (static growth); read-out: Diameter of inhibition zone
With `Cn1cc(C(=O)N[C@@H]2[C@@H]3CC[C@@]2(c2cc(F)c(F)c(F)c2)C3)c(C(F)F)n1` (relative stereo) [Compound 28] the zone of inhibition at 62.5 µg/mL was 30 ± 0.6 mm.

Same assay, conditions: Fusarium oxysporum; 0.125 mg/mL; zones st (static growth); read-out: Diameter of inhibition zone
Work on `Cn1cc(C(=O)N[C@@H]2[C@@H]3CC[C@@]2(c2cc(F)c(F)c(F)c2)C3)c(C(F)F)n1` (relative stereo) [Compound 28] yielded a zone of inhibition at 125 µg/mL of 34 ± 1.2 mm.

Same assay, conditions: Fusarium oxysporum; 0.25 mg/mL; zones st (static growth); read-out: Diameter of inhibition zone
`Cn1cc(C(=O)N[C@@H]2[C@@H]3CC[C@@]2(c2cc(F)c(F)c(F)c2)C3)c(C(F)F)n1` (relative stereo) [Compound 28] showed a zone of inhibition at 250 µg/mL of 38 ± 1.5 mm.

Same assay, conditions: Fusarium oxysporum; 0.5 mg/mL; zones st (static growth); read-out: Diameter of inhibition zone
For `Cn1cc(C(=O)N[C@@H]2[C@@H]3CC[C@@]2(c2cc(F)c(F)c(F)c2)C3)c(C(F)F)n1` (relative stereo) [Compound 28], the zone of inhibition at 500 µg/mL was 38 ± 0.6 mm.

Same assay, conditions: Fusarium oxysporum; 1 mg/mL; 40 µl per well, 25 °C, 72 h; zones st (static growth); read-out: Diameter of inhibition zone
`Cn1cc(C(=O)N[C@@H]2[C@@H]3CC[C@@]2(c2cc(F)c(F)c(F)c2)C3)c(C(F)F)n1` (relative stereo) [Compound 28] showed a zone of inhibition at 1000 µg/mL of 44 ± 1.15 mm.

Same assay, conditions: agar well diffusion; tested 0.0039-1.0 mg/mL
Work on `Cn1cc(C(=O)N[C@@H]2[C@@H]3CC[C@@]2(c2cc(F)c(F)c(F)c2)C3)c(C(F)F)n1` (relative stereo) [Compound 28] yielded a lowest inhibition concentration of under 0.0039 mg/mL.

Test system: Fusarium verticillioides
Assay: Antifungal activity, agar well diffusion method
Type: cell-based
Conditions: Fusarium verticillioides; 0.0039 mg/mL; 0 = absence of antifungal activity; read-out: Diameter of inhibition zone
Source text: as §1, §2, §3, §4, §5, §6, §7, §8, §9, §10, §11, §12, §13, §14, §15, §16
Work on `Cn1cc(C(=O)N[C@@H]2[C@@H]3CC[C@@]2(c2cc(F)c(F)c(F)c2)C3)c(C(F)F)n1` (relative stereo) [Compound 28] yielded a zone of inhibition at 3.9 µg/mL of 35 ± 1.5 mm.

Same assay, conditions: Fusarium verticillioides; 0.0078 mg/mL; 0 = absence of antifungal activity; read-out: Diameter of inhibition zone
Molecule `Cn1cc(C(=O)N[C@@H]2[C@@H]3CC[C@@]2(c2cc(F)c(F)c(F)c2)C3)c(C(F)F)n1` (relative stereo) [Compound 28] has a zone of inhibition at […] of 37 ± 1.5 mm.

Same assay, conditions: Fusarium verticillioides; 0.0156 mg/mL; 0 = absence of antifungal activity; read-out: Diameter of inhibition zone
`Cn1cc(C(=O)N[C@@H]2[C@@H]3CC[C@@]2(c2cc(F)c(F)c(F)c2)C3)c(C(F)F)n1` (relative stereo) [Compound 28] gave a zone of inhibition at 15.6 µg/mL of 41 ± 1.2 mm.

Same assay, conditions: Fusarium verticillioides; 0.03125 mg/mL; 0 = absence of antifungal activity; read-out: Diameter of inhibition zone
Work on `Cn1cc(C(=O)N[C@@H]2[C@@H]3CC[C@@]2(c2cc(F)c(F)c(F)c2)C3)c(C(F)F)n1` (relative stereo) [Compound 28] yielded a zone of inhibition at 31.25 µg/mL of 41 ± 1.7 mm.

Same assay, conditions: Fusarium verticillioides; 0.0625 mg/mL; 0 = absence of antifungal activity; read-out: Diameter of inhibition zone
Work on `Cn1cc(C(=O)N[C@@H]2[C@@H]3CC[C@@]2(c2cc(F)c(F)c(F)c2)C3)c(C(F)F)n1` (relative stereo) [Compound 28] yielded a zone of inhibition at 62.5 µg/mL of 47 ± 1 mm.

Same assay, conditions: Fusarium verticillioides; 0.125 mg/mL; 0 = absence of antifungal activity; read-out: Diameter of inhibition zone
`Cn1cc(C(=O)N[C@@H]2[C@@H]3CC[C@@]2(c2cc(F)c(F)c(F)c2)C3)c(C(F)F)n1` (relative stereo) [Compound 28] gave a zone of inhibition at 125 µg/mL of 48 ± 1.5 mm.

Same assay, conditions: Fusarium verticillioides; 0.25 mg/mL; 0 = absence of antifungal activity; read-out: Diameter of inhibition zone
Molecule `Cn1cc(C(=O)N[C@@H]2[C@@H]3CC[C@@]2(c2cc(F)c(F)c(F)c2)C3)c(C(F)F)n1` (relative stereo) [Compound 28] has a zone of inhibition at 250 µg/mL of 51 ± 1.5 mm.

Same assay, conditions: Fusarium verticillioides; 0.5 mg/mL; 0 = absence of antifungal activity; read-out: Diameter of inhibition zone
In the case of `Cn1cc(C(=O)N[C@@H]2[C@@H]3CC[C@@]2(c2cc(F)c(F)c(F)c2)C3)c(C(F)F)n1` (relative stereo) [Compound 28], the zone of inhibition at 500 µg/mL is reported as 51 ± 1.7 mm.

Same assay, conditions: Fusarium verticillioides; 1 mg/mL; 40 µl per well, 25 °C, 72 h; 0 = absence of antifungal activity; read-out: Diameter of inhibition zone
`Cn1cc(C(=O)N[C@@H]2[C@@H]3CC[C@@]2(c2cc(F)c(F)c(F)c2)C3)c(C(F)F)n1` (relative stereo) [Compound 28] showed a zone of inhibition at 1000 µg/mL of 58 ± 1.5 mm.

Test system: not listed separately
Assay: Kinetic solubility in phosphate-buffered saline, pH 7.4
Type: physicochemical
Conditions: phosphate-buffered saline, 25 °C, pH 7.4, aqueous buffer, kinetic from dmso stock, Table S1; incubation 1; read-out: PBS solubility, pH 7.4, Incubation 1
Method: Analysis of Aqueous Solubility […]
compound (Ondansetron) were assessed for kinetic solubility in phosphate-buffered saline, pH […]
Phosphate buffered saline, pH 7.4 (Sigma-Aldrich, USA; Cat #P3813) […]
MultiScreen HTS 96 Well Filter Plates (Millipore, Ireland; Cat # MSGVS2210) […]
Matrix Multichannel Electronic Pipette 2-125 µL, 5-250 µL, 15-1250 µL (Thermo Scientific, […]
Vacuum pump (Millipore, USA; Model # XX5500000)
The measurements were performed using SpectraMax Plus reader in UV-Vis mode. Acquisition and analysis of the data were performed using SoftMax Pro v.5.4 (Molecular Devices) and Excel […]
Kinetic solubility assay was performed according to the Enamine’s aqueous solubility SOP.
Briefly, using a 20 mM stock solution of the compound in 100% DMSO dilutions were prepared to a theoretical concentration of 400 μM in duplicates in phosphate-buffered saline pH 7.4 […]
for two hours and then filtered through HTS filter plates using a vacuum manifold. The filtrates of test compounds were diluted 2-fold with acetonitrile with 2% DMSO before measuring.
In parallel, compound dilutions in acetonitrile/PBS (1:1) were prepared to theoretical […]
DMSO to generate calibration curves. Ondansetron was used as reference compound to control proper assay performance. 200 μl of each sample was transferred to 96-well plate and measured in 200-550 nm range with 5 nm step.
The concentrations of compounds in PBS filtrate are calculated using a dedicated Microsoft Excel calculation script. Proper absorbance wavelengths for calculations are selected for each compound manually based on absorbance maximums (absolute absorbance unit values for the minimum and maximum concentration points within 0 – 3 OD range). Each of the final datasets is additionally visually evaluated by the operator and goodness of fit (R2) is calculated for each calibration curve. The effective range of this assay is approximately 2-400 μM and the […]
With `Cn1cc(C(=O)N[C@@H]2[C@@H]3CC[C@@]2(c2cc(F)c(F)c(F)c2)C3)c(C(F)F)n1` (relative stereo) [Compound 28] the solubility at 2 h was 35 µM (≈ 13.5 µg/mL).

Same assay, conditions: phosphate-buffered saline, 25 °C, pH 7.4, aqueous buffer, kinetic from dmso stock, Table S1; incubation 2; read-out: PBS solubility, pH 7.4, Incubation 2
For `Cn1cc(C(=O)N[C@@H]2[C@@H]3CC[C@@]2(c2cc(F)c(F)c(F)c2)C3)c(C(F)F)n1` (relative stereo) [Compound 28], the solubility at 2 h was 33 µM (≈ 12.7 µg/mL).

Same assay, conditions: phosphate-buffered saline, 25 °C, pH 7.4, aqueous buffer, kinetic from dmso stock, experimental kinetic solubility in phosphate-buffered saline at pH 7.4; Fig. 3; read-out: Solubility
For `Cn1cc(C(=O)N[C@@H]2[C@@H]3CC[C@@]2(c2cc(F)c(F)c(F)c2)C3)c(C(F)F)n1` (relative stereo) [Compound 28], the solubility at 2 h was 34 µM (≈ 13.1 µg/mL).

— paper PMC10396955, “2-Oxabicyclo[2.1.1]hexanes as saturated bioisosteres of the ortho-substituted phenyl ring” (Nature Chemistry, 2023)
